Results taken from ChEMBL document CHEMBL1201862, “PubChem BioAssay data set” (2004).
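Test compounds were applied to cells in 96-well plates for 48 hours at 5 doses. Here, GI50 denotes the concentration required for 50% inhibition of growth.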 Active and inactive are the calls of the source. Cut-off read from the data, not from the text of the source: active = GI50 up to about 1.1 µM and inactive = higher.

Columns and labels:
Assay in all cases: NCI anticancer screen, dose series, 48 h
CCRF-CEM = system: CCRF-CEM
HCT-15 = system: HCT-15
NCI/ADR-RES = system: NCI/ADR-RES
SF-295 = system: SF-295
SN12C = system: SN12C
ACHN = system: ACHN
MDA-N = system: MDA-N
COLO 205 = system: COLO 205
CAKI-1 = system: CAKI-1
UACC-62 = system: UACC-62
SK-MEL-5 = system: SK-MEL-5
HT-29 = system: HT-29
786-0 = system: 786-0
OVCAR-5 = system: OVCAR-5
A549 = system: A549
NCI-H23 = system: NCI-H23
K562 = system: K562
SNB-75 = system: SNB-75
LOX IMVI = system: LOX IMVI
SK-MEL-2 = system: SK-MEL-2

SMILES | GI50 (CCRF-CEM) | GI50 (HCT-15) [µM] | GI50 (NCI/ADR-RES) | GI50 (SF-295) | GI50 (SN12C) | GI50 (ACHN) | GI50 (MDA-N) | GI50 (COLO 205) | GI50 (CAKI-1) | GI50 (UACC-62) | GI50 (SK-MEL-5) | GI50 (HT-29) | GI50 (786-0) | GI50 (OVCAR-5) | GI50 (A549) | GI50 (NCI-H23) | GI50 (K562) | GI50 (SNB-75) | GI50 (LOX IMVI) | GI50 (SK-MEL-2)
O=c1[nH]c2ccc(O)cc2o1 | > 100 µM (inactive) | > 100 | > 100 µM (inactive) | > 100 µM (inactive) | > 100 µM (inactive) | > 100 µM (inactive) | > 100 µM (inactive) | > 100 µM (inactive) | > 100 µM (inactive) | > 100 µM (inactive) | > 100 µM (inactive) | > 100 µM (inactive) | > 100 µM (inactive) | > 100 µM (inactive) | > 100 µM (inactive) | > 100 µM (inactive) | > 100 µM (inactive) | 42.7 µM (inactive) |  | 
CCOC(=O)c1cnc2oc3ccc(O)cc3c2c1C | 32.7 µM (inactive) | > 100 | 41.6 µM (inactive) | 78.7 µM (inactive) | > 100 µM (inactive) | > 100 µM (inactive) | > 100 µM (inactive) | > 100 µM (inactive) | 67 µM (inactive) | > 100 µM (inactive) | 69.3 µM (inactive) | > 100 µM (inactive) | > 100 µM (inactive) | > 100 µM (inactive) | > 100 µM (inactive) | > 100 µM (inactive) | > 100 µM (inactive) |  | > 100 µM (inactive) | > 100 µM (inactive)
CCCCCC1CC=CC(=O)O1 (configuration not stated) | 2.39 µM (inactive) | 5.07 | 5.73 µM (inactive) | 11.5 µM (inactive) | 6.73 µM (inactive) | 7.62 µM (inactive) | 6.15 µM (inactive) | 4.06 µM (inactive) | 3.72 µM (inactive) | 11.5 µM (inactive) | 12.4 µM (inactive) | 3.89 µM (inactive) | 3.85 µM (inactive) | 6.84 µM (inactive) | 6.81 µM (inactive) | 5.69 µM (inactive) | 5.4 µM (inactive) |  | 7.62 µM (inactive) | 6.84 µM (inactive)
CC(C)=NNc1cnnc2ccc([N+](=O)[O-])cc12 | 32.9 µM (inactive) | 57.5 | > 100 µM (inactive) | > 100 µM (inactive) | 36.1 µM (inactive) | 23.9 µM (inactive) | 47.2 µM (inactive) | 36.6 µM (inactive) | 52 µM (inactive) |  | 55.3 µM (inactive) | > 100 µM (inactive) | 51.3 µM (inactive) | > 100 µM (inactive) | > 100 µM (inactive) | > 100 µM (inactive) |  | 58.9 µM (inactive) |  | > 100 µM (inactive)
CCOC(=O)N1c2c(c3ccccc3n2C(=O)OCC)C(=O)C(OC)N1C(=O)OCC (configuration not stated) | 19.5 µM (inactive) | 27.7 | 22.9 µM (inactive) | 19.6 µM (inactive) | 28.8 µM (inactive) | 25.6 µM (inactive) | 33.2 µM (inactive) | 15.5 µM (inactive) | 28.8 µM (inactive) | 40.1 µM (inactive) | 21.8 µM (inactive) | 30.5 µM (inactive) | 43.2 µM (inactive) | 42 µM (inactive) | 32.7 µM (inactive) | 44.3 µM (inactive) | 21.1 µM (inactive) |  | 18.1 µM (inactive) | 16 µM (inactive)
Cc1nc(N)c(N2CCN(S(=O)(=O)N(Cc3ccccc3)Cc3ccccc3)CC2)c(O)n1 | > 100 µM (inactive) | > 100 | 71.3 µM (inactive) | 26.4 µM (inactive) | 32.7 µM (inactive) | 18.2 µM (inactive) | 85.1 µM (inactive) | 23.3 µM (inactive) |  |  |  | 26.8 µM (inactive) | 28.9 µM (inactive) | 28 µM (inactive) | 82.6 µM (inactive) | 21.9 µM (inactive) | > 100 µM (inactive) | 10.9 µM (inactive) | > 100 µM (inactive) | 55.2 µM (inactive)
NNc1nncn1N | 1.25 µM (inactive) | > 100 | > 90.6 µM (inactive) | > 100 µM (inactive) | > 73.1 µM (inactive) | > 100 µM (inactive) |  | > 100 µM (inactive) | > 100 µM (inactive) | > 100 µM (inactive) | > 100 µM (inactive) | > 100 µM (inactive) | > 80 µM (inactive) | > 100 µM (inactive) | > 100 µM (inactive) | > 51.2 µM (inactive) | > 76 µM (inactive) | > 100 µM (inactive) | > 90.4 µM (inactive) | > 100 µM (inactive)
CC(C)(C)c1cc(C(=O)/C=C/c2cc[nH]n2)cc(C(C)(C)C)c1O | 2.07 µM (inactive) | 2.11 | 4.62 µM (inactive) | 13.7 µM (inactive) | 1.85 µM (inactive) | 1.62 µM (inactive) |  | 2.07 µM (inactive) | 2.48 µM (inactive) | 3.26 µM (inactive) | 7.52 µM (inactive) | 2.61 µM (inactive) | 1.58 µM (inactive) | 5.37 µM (inactive) | 3.02 µM (inactive) | 2.78 µM (inactive) | 3.08 µM (inactive) | 4.61 µM (inactive) | 1.85 µM (inactive) | 1.78 µM (inactive)
Cc1cc(C)n2nc3nc(N)c(C#N)c(-c4ccccc4)c3c2n1 | > 100 µM (inactive) | > 100 | > 100 µM (inactive) | > 100 µM (inactive) | > 100 µM (inactive) | > 100 µM (inactive) | > 100 µM (inactive) | > 100 µM (inactive) | > 100 µM (inactive) | > 100 µM (inactive) | > 80.2 µM (inactive) | > 100 µM (inactive) | > 100 µM (inactive) | > 100 µM (inactive) | > 100 µM (inactive) | > 100 µM (inactive) | > 100 µM (inactive) |  | > 100 µM (inactive) | > 100 µM (inactive)
Cc1cc(C2CC(O)C(CO)O2)c(F)cc1F (configuration not stated) | > 100 µM (inactive) | > 100 | > 100 µM (inactive) | > 100 µM (inactive) | > 100 µM (inactive) | > 100 µM (inactive) | > 100 µM (inactive) | > 100 µM (inactive) | > 100 µM (inactive) | > 100 µM (inactive) |  | > 100 µM (inactive) | > 100 µM (inactive) | > 100 µM (inactive) | > 100 µM (inactive) | > 100 µM (inactive) | > 100 µM (inactive) | > 100 µM (inactive) | > 100 µM (inactive) | 
COCN1C(=O)[C@@H]2CCCN2C(=O)c2ccc([N+](=O)[O-])cc21 | > 100 µM (inactive) | > 100 | > 100 µM (inactive) | > 100 µM (inactive) | > 100 µM (inactive) | > 100 µM (inactive) |  | > 100 µM (inactive) | > 100 µM (inactive) | > 100 µM (inactive) | > 100 µM (inactive) | > 100 µM (inactive) | > 100 µM (inactive) | > 100 µM (inactive) | > 100 µM (inactive) | > 100 µM (inactive) | > 100 µM (inactive) | > 100 µM (inactive) | > 100 µM (inactive) | > 100 µM (inactive)
CNc1nc2c(C)ccc3nc(N(C)C)nc-3c2n1C | > 10 µM (inactive) | > 10 | > 10 µM (inactive) | > 10 µM (inactive) | 7.96 µM (inactive) | > 10 µM (inactive) | > 10 µM (inactive) | > 10 µM (inactive) | > 10 µM (inactive) |  | > 10 µM (inactive) | > 10 µM (inactive) | > 10 µM (inactive) | > 10 µM (inactive) | > 10 µM (inactive) | > 10 µM (inactive) | > 10 µM (inactive) | > 10 µM (inactive) |  | > 10 µM (inactive)
COc1ccc(C2NC3=C(CCCC3)C3(C#N)C(=O)N=C(N)C23C#N)cc1 (configuration not stated) | 23 µM (inactive) | > 100 | > 100 µM (inactive) | > 100 µM (inactive) | > 100 µM (inactive) | > 100 µM (inactive) | > 100 µM (inactive) | > 100 µM (inactive) | > 100 µM (inactive) | > 100 µM (inactive) | > 100 µM (inactive) | > 100 µM (inactive) | > 100 µM (inactive) | > 100 µM (inactive) | > 100 µM (inactive) | > 100 µM (inactive) | > 100 µM (inactive) |  | > 100 µM (inactive) | > 100 µM (inactive)
O=C(c1ccccc1)c1nc2ccc(Cl)cc2cc1C(Br)Br | 0.395 µM (active) | 0.31 | 0.161 µM (active) | 0.261 µM (active) | 0.252 µM (active) | 0.263 µM (active) |  | 0.344 µM (active) | 0.552 µM (active) | 0.569 µM (active) | 0.692 µM (active) | 0.197 µM (active) | 0.17 µM (active) | 0.519 µM (active) | 1.44 µM (inactive) | 0.304 µM (active) | 0.244 µM (active) | 0.278 µM (active) | 1.47 µM (inactive) | 0.45 µM (active)
CCc1n[nH]c(=O)n1/N=C(\C)c1ccc([N+](=O)[O-])cc1 | > 100 µM (inactive) | > 100 | > 100 µM (inactive) | > 100 µM (inactive) | 54.7 µM (inactive) |  | > 100 µM (inactive) | 46.5 µM (inactive) | > 100 µM (inactive) | > 100 µM (inactive) | > 100 µM (inactive) | 36.6 µM (inactive) | > 100 µM (inactive) | > 100 µM (inactive) | 86.7 µM (inactive) | 66.8 µM (inactive) | 97.7 µM (inactive) |  | 49.4 µM (inactive) | > 100 µM (inactive)
